Experimental data taken from patent US11447529B2, “Microcin MccY, and preparation method and use thereof” (South China Agricultural University, priority 2021, dated 2022).

Experiments:
Assay in all cases: Bacteriostatic ring test on double-layer agar
Type in all cases: cell-based
[1] = tested on: Salmonella kentucky (strain name: BNCC239114); settings: 50 μL filtrate (combination 25 uL + 25 uL), double-layer LB agar, 37° C., 18 h; FIG. 2
Experimental: (§1) Salmonella kentucky (strain name: BNCC239114), Salmonella Infantis (strain name: CMCC50041) and Salmonella london (strain name: CVCC2206) were respectively resuscitated in a LB agar plate (with the formula as shown in Table 4) (cultured in a 5% CO2 incubator at 37° C. for 16 h). Single colonies were picked and subjected to shaking culture until OD600=0.8. The bacterial solution was inoculated into a soft agar medium containing 5% LB (with the formula as shown in Table 5) at about 42° C. in a proportion of 1:1,000, and then spread onto a LB agar plate to form an upper and lower double-layer agar medium. 30 min later, after the soft agar was cooled and solidified, a mixed solution of 50 μL of the filtrate obtained in Example 1 (the Microcin MccY), 50 μL of the filtrate obtained in Example 2, 50 μL of the filtrate obtained in Example 3 (the Microcin MccJ25), 25 uL of the filtrate obtained in Example 1 (the Microcin MccY) and 25 uL of the filtrate obtained in Example 3 (the Microcin MccJ25) was taken and added into the upper and lower double-layer agar medium containing […]. The upper and lower double-layer agar medium was then placed into a 5% CO2 bacterial incubator at 37° C. for static culture for 18 h, and then observed for a bacteriostatic ring.

[2] = tested on: Salmonella london (strain name: CVCC2206); settings: 50 μL filtrate (combination 25 uL + 25 uL), double-layer LB agar, 37° C., 18 h; FIG. 2
Experimental: as §1

[3] = tested on: Salmonella Infantis (strain name: CMCC50041); settings: 50 μL filtrate (combination 25 uL + 25 uL), double-layer LB agar, 37° C., 18 h; FIG. 2
Experimental: as §1

[4] = tested on: Salmonella enteritidis (strain name: CVCC3377); settings: 50 μL filtrate (combination 25 uL + 25 uL), double-layer LB agar, 37° C., 18 h; FIG. 1
Experimental: as §1, with “Pullorum” for “kentucky”, “CVCC1800),” for “BNCC239114),”, “enteritidis” for “Infantis”, “CVCC3377)” for “CMCC50041)”, “typhimurium” for “london”, “ATCC14028)” for “CVCC2206)”

[5] = tested on: Shigella flexneri (strain name: CMCC51572); settings: 50 μL filtrate, double-layer LB agar, 37° C., 18 h; FIG. 3
Experimental: (§2) Shigella flexneri (strain name: CMCC51572) and Shigella sonnei (strain name: CMCC51592) were respectively resuscitated in a LB agar plate (with the formula as shown in Table 4) (cultured in a 5% CO2 incubator at 37° C. for 16 h). Single colonies were picked and subjected to shaking culture until OD600=0.8. The bacterial solution was inoculated into a soft agar medium containing 5% LB (with the formula as shown in Table 5) at about 42° C. in a proportion of 1:1,000, and then spread onto a LB agar plate to form an upper and lower double-layer agar medium. 30 min later, after the soft agar was cooled and solidified, each 50 μL of the filtrate obtained in Example 1 (the Microcin MccY) and methanol were respectively taken and added into the upper and lower double-layer agar medium containing Shigella flexneri and Shigella sonnei (the control group was added with the same amount of the filtrate obtained in Example 2). The upper and lower double-layer agar medium was then placed into a 5% CO2 bacterial incubator at 37° C. for static culture for 18 h, and then observed for a bacteriostatic ring.

[6] = tested on: Shigella sonnei (strain name: CMCC51592); settings: 50 μL filtrate, double-layer LB agar, 37° C., 18 h; FIG. 3
Experimental: as §2

[7] = tested on: Salmonella typhimurium (strain name: ATCC14028); settings: 50 μL filtrate (combination 25 uL + 25 uL), double-layer LB agar, 37° C., 18 h; FIG. 1
Experimental: as §1, with “Pullorum” for “kentucky”, “CVCC1800),” for “BNCC239114),”, “enteritidis” for “Infantis”, “CVCC3377)” for “CMCC50041)”, “typhimurium” for “london”, “ATCC14028)” for “CVCC2206)”

[8] = tested on: Salmonella Pullorum (strain name: CVCC1800); settings: 50 μL filtrate (combination 25 uL + 25 uL), double-layer LB agar, 37° C., 18 h; FIG. 1
Experimental: as §1, with “Pullorum” for “kentucky”, “CVCC1800),” for “BNCC239114),”, “enteritidis” for “Infantis”, “CVCC3377)” for “CMCC50041)”, “typhimurium” for “london”, “ATCC14028)” for “CVCC2206)”

For “MccJ25: Known Microcin MccJ25 (SEQ ID NO.10); tested as filtrate expressed by pET-28a(+)-MccJ25-containing BL21(DE3) bacteria (GGAGHVPEYFVGIGTPISFYG; Primer) [reference compound]”, the “bacteriostatic effect (bacteriostatic ring) against Salmonella kentucky” value [1] was “no inhibitory effect”, the “bacteriostatic effect (bacteriostatic ring) against Salmonella london” value [2] was “no inhibitory effect” and the “bacteriostatic effect (bacteriostatic ring) against Salmonella Infantis” value [3] was “no inhibitory effect”. For the same substance, the “bacteriostatic effect (bacteriostatic ring) against Salmonella enteritidis” value [4] was “inhibitory effect”.
In the case of “MccY: Microcin with amino acid sequence GGRGHIAEYFSGPITQVSFYG (SEQ ID NO.1); tested as filtrate expressed by pET-28a(+)-MccY-containing BL21(DE3) bacteria (Primer)”, the “bacteriostatic effect (bacteriostatic ring) against Salmonella kentucky” value [1] is reported as “inhibitory effects”, the “bacteriostatic effect (bacteriostatic ring) against Salmonella london” value [2] is reported as “inhibitory effects” and the “bacteriostatic effect (bacteriostatic ring) against Salmonella Infantis” value [3] is reported as “inhibitory effects”. The “bacteriostatic effect (bacteriostatic ring) against Shigella flexneri” value [5] was “not sensitive”, the “bacteriostatic effect (bacteriostatic ring) against Shigella sonnei” value [6] was “sensitive” and the “bacteriostatic effect (bacteriostatic ring) against Salmonella typhimurium” value [7] was “inhibitory effects”. For the same substance, the “bacteriostatic effect (bacteriostatic ring) against Salmonella Pullorum” value [8] was “inhibitory effects”.
